Experiments:
[1] = system: HbAA and HbSS whole blood; test: pO2 reduction in whole blood by Na2S2O5 (blood gas analyzer); parameters: species or system human
Method: All samples were initially exposed to ambient air for 600 seconds. The oxygen partial pressure (pO2), 21% of atmospheric pressure (773 mmHg), was then normalized to 162 mmHg PO2 during oxygenation (FIG. 7A). Sodium metabisulphite (Na2S2O5) was used to deoxygenate the samples chemically (FIG. 7B). Predetermined amounts of sodium metabisulphite were mixed with 2 ml of the prepared samples for 90 seconds using a vortexer (Scientific Industries, Bohemia, NY). The concentrations of Na2S2O5 used with purified hemoglobin were 0.039 M, 0.046 M, 0.053 M, 0.059 M, 0.066 M, 0.079 M, and 0.082 M, which corresponded to a gradual reduction in the oxygen partial pressure in the samples. For whole blood and RBC analyses, we used 0.053 M of Na2S2O (17-fold more molecules than Hb molecules in solution) to achieve partial deoxygenation (Table 1). A blood gas analyzer (Nova Starter Pro, Nova BioMed, Boston, Massachusetts) was used to confirm the deoxygenation levels at those Na2S2O5 concentrations.
We used sodium metabisulphite (Na2S2O5) to deoxygenate purified hemoglobin, intact RBCs, or whole blood (FIGS. 7A & B). […] At elevated concentrations of Na2S2O5, corresponding to high levels of deoxygenation or pO2 close to 30 mmHg, the curve plateaus (FIG. 8).

HbSS patient whole blood = test: Peak wavelength shift of whole blood from SCD patients stratified by treatment; parameters: species or system human
Method: Blood samples were collected from healthy donors and individuals with SCD as part of standard clinical care. We received ethical approval from the University Hospitals of Cleveland Medical Center's Institutional Review Board (IRB) and Joint Clinical Research Ethics Committee in Kampala, Uganda, for the Naïve SCD group. All participants in the study provided written informed consent. When collected, blood samples were de-identified, kept at 4 degrees Celsius, and processed within 6 hours of receipt. […] Hemoglobin profiles of samples were verified using the reference standard high performance liquid chromatography (HPLC, VARIANT™ II, Bio-Rad Laboratories, Inc., Hercules, California). […] Intracellular hemoglobin concentration for all blood samples was measured under normoxia with complete blood count (CBC, Hemavet 950FS, Hematology System, Draw Scientific Inc.; Miami, Florida).
During testing with either oxygenation or deoxygenation, samples were analyzed in three microplate wells using a spectroscopy microplate reader Spectramax M2e (Molecular Devices, San Jose, CA), over a spectral range of 350-750 nm, with a wavelength resolution of 2 nm and at a customized microplate well reading setting at room temperature. […] (3) For each sample and at concentration of 0.053 M Na2S2O5, the bathochromic wavelength shift and intensity were assessed for further analysis (FIG. 7D). […]

HbSS = biological target: T1, HbSS (Homo sapiens, UniProt P68871+P69905, E7V); test: 96-well high throughput optical absorption assay: Soret band peak wavelength shift of deoxygenated SCD samples treated with oxygen modifying molecules; assay type: biochemical
T1 construct: whole blood, washed red cells or purified hemoglobin
From the text: FIGS. 3(A-C) illustrate varying concentration of voxelotor tested using 96 well plates optical assay. (A) Representative 96 well plate, showing the arrangement of a single sample analyzed. […] (B) Insert from the 12 columns of the 96 well plate, showing the Soret band peak wavelength shift in the wavelength range of 380-450 nm.
FIGS. 4(A-B) illustrate increasing the concentration of voxelotor induces a decrease in the peak wavelength of SCD samples (A) Insert from the 12 columns of the 96 well plate, showing the Soret band peak wavelength shift in the wavelength range of 380-450 nm.
FIGS. 5(A-B) illustrate varying concentration of PKR activator tested using 96 well plates optical assay. (A) Insert from the 12 columns of the 96 well plate, showing the Soret band peak wavelength shift in the wavelength range of 380-450 nm.
FIGS. 6(A-B) illustrate varying concentrations of aptamer induce peak wavelength shift. (A) Soret band peak wavelength shifts for oxygenated blood with aptamer deoxygenated blood with aptamer, untreated blood, and voxelotor treatment were compared in the wavelength range of 350-450. Increasing the concentration of aptamer from 0.2 dosages (B) Increasing the concentration of aptamer from 0.2 dosages to 0.25 induces a reduction in peak wavelength from 416 nm to 414 nm.
This example relates to a 96-well high throughput assay optical absorption spectroscopic assay that can be used to assess the rate of oxygen release from hemoglobin.
Whole blood, purified hemoglobin, or washed red blood cells (RBCs) are mixed with a buffer solution at 6.8 or 8. Additional hemoglobin or RBCs to an acidic buffer changes the molecular conformational structure of hemoglobin. Determined volume of the analyte (including but not limited to whole blood, purified hemoglobin, or red blood cells (RBCs)) are mixed with buffer are added to each of the 12/96/384 well plates. The analytes are then chemically deoxygenated with a determined concentration of sodium metabisulphite an approach to deplete oxygen from hemoglobin molecules. The solution is analyzed using a spectroscopic microplate reader. […]

hemoglobin (HbAA, HbSS) = test: Hemoglobin-oxygen dissociation assay (Soret band bathochromic shift with partial chemical deoxygenation by Na2S2O5); assay type: biochemical, human; conditions: for Peak wavelength: pH 6.9, pO2 = 75 mmHg, mean ± SEM; for peak wavelength, repeatability: ~20 mmHg pO2, mean ± SEM
From the text: Herein, we take advantage of the unique optical shift of Hb's Soret band and combine it with partial chemical deoxygenation to optically measure Hb-O2 dissociation under physiologically acidic conditions at pH 6.9.
Blood samples were collected from healthy donors and individuals with SCD as part of standard clinical care. We received ethical approval from the University Hospitals of Cleveland Medical Center's Institutional Review Board (IRB) and Joint Clinical Research Ethics Committee in Kampala, Uganda, for the Naïve SCD group. All participants in the study provided written informed consent. When collected, blood samples were de-identified, kept at 4 degrees Celsius, and processed within 6 hours of receipt. […] Hemoglobin profiles of samples were verified using the reference standard high performance liquid chromatography (HPLC, VARIANT™ II, Bio-Rad Laboratories, Inc., Hercules, California). The results were presented as a percentage of HbS, A2, and F; the remainder was considered HbA since the values were normalized to 100%. Intracellular hemoglobin concentration for all blood samples was measured under normoxia with complete blood count (CBC, Hemavet 950FS, Hematology System, Draw Scientific Inc.; Miami, Florida).
Three independent sample preparations were performed to test different hypotheses. (1) Whole blood, (2) isolated intact red blood cells (RBC), and (3) purified hemoglobin (lysed samples).
For whole blood preparation, 75 μl of whole blood was mixed with pH 6.9 buffers at a ratio of 1:300 and incubated for 10 minutes at room temperature before deoxygenation.
For intact RBC sample preparation, whole blood was centrifuged at 500 g for 10 minutes in a microcentrifuge (model 21r; Thermo Scientific, Waltham, MA). The plasma and buffy coat were removed via aspiration. The RBCs were washed thrice with phosphate-buffered saline (PBS) at pH 7.4 (Gibco, Thermo Scientific, Waltham, MA). Next, 45 μL of the washed RBC suspension was diluted with a pH 6.9 buffer solution until the baseline hematocrit of 0.2% was achieved. Before deoxygenation, RBCs were incubated for 10 minutes in a pH 6.9 buffer solution at room temperature.
For purified hemoglobin preparation; lysed samples were prepared. Hemolysis was carried out by sonication for 30 seconds (Hemex Health; Portland, OR). Following hemolysis, the lysed cell suspension was added to various pH buffer solutions and centrifuged at 2000 g for 1 hour. Three hundred μl of the cell lysate was removed, and the supernatant was dis-carded. Cell lysates were diluted in 700 μl of the specific pH buffer solution and centrifuged at 2000 g for 1 hour. The 1 ml of pH buffer solution and cell lysate were filtered through a 0.02 μm Millipore membrane. The hemoglobin concentration in the lysed sample was determined using the hemoglobin [COMPOUND LEFT OUT] (HiCN) method and measured with a cuvette spectrophotometer at 540 nm. Each purified lysed sample was diluted with different pH solutions (pH 6.9, 7.2, 7.4, 8.0, and 10.0) to achieve a hemoglobin concentration of 2.8 mg dl^−1, determined as the baseline for lysed sample analysis.

purified hemoglobin = test: Circular dichroism spectra of purified hemoglobin at pH 6.9; assay type: physicochemical, human; conditions: purified Hb, pH 6.9, 75 mmHg, deoxy
From the text: The circular dichroism (CD) spectra, like the absorption spectra in the Soret and visible range, reveal the molecular structure of the hemoglobin globin and heme groups. […] CD spectra were collected between 190 and 650 nm wavelength on a Jasco J-1500 Spectropolarimeter with a 1 mm quartz cuvette and a scan rate of 4 seconds. The recorded spectra were background subtracted, accounting for a pH 6.9 buffer. The data was baselined and smoothed in the Spectra Manager software (Release 2018; Version 2.15.01).

O=S([O-])S(=O)(=O)[O-].[Na+].[Na+] [Na2S2O5, sodium metabisulfite]
pO2 in whole blood with increased Na2S2O5 concentration ([1]; 0-0.08 M Na2S2O5, 4 minutes, pH 6.9, 7.2, 7.4, 8.0, HbAA and HbSS, n=5, FIG. 8): 20-40 mmHg | deoxygenation of hemoglobin ([1]; 0.053 M Na2S2O5): partial deoxygenation of hemoglobin | pO2 of deoxygenated samples ([1]; 0.053 M Na2S2O5): 75 mmHg | min. pO2 in HbSS whole blood ([1]; 0.053 M Na2S2O5, FIG. 8B): around 10 mmHg

NC(=O)NO [hydroxyurea]
peak wavelength shift differences, oxygenated samples (HbSS patient whole blood; Hu HbSS, oxygenated, FIG. 11C): No significant differences | bathochromic shift differences between HbAA, HbAS and HbSS stratified by treatment (HbSS patient whole blood; hydroxyurea (Hu HbSS=15), deoxygenated 75 mmHg, pH 6.9, FIG. 11C): significant differences

CC(C)n1nccc1-c1ncccc1COc1cccc(O)c1C=O [voxelotor]
difference in peak wavelength shift between deoxy HbSS and deoxy HbSS+Vox (HbSS; 63, 118, 211 and 421 μM Vox, Mann-Whitney, FIG. 4): Significate differences | peak wavelength shift of treated SCD samples compared to untreated SCD samples (HbSS; voxelotor, 3 hours incubation, varying concentrations): reduced peak wavelength shift | effect of increasing concentration on oxygen affinity of HbSS (HbSS; voxelotor, reduction in peak wavelength shift to that of HbAA, FIG. 4): increases the oxygen affinity of HbSS

HbAA: healthy hemoglobin
peak wavelength, fully oxygenated (hemoglobin (HbAA, HbSS); 162 mmHg pO2, all pH values): 414 nm | Peak wavelength (hemoglobin (HbAA, HbSS); RBCs): 418.0 ± 0.56 (n = 15) | peak wavelength, repeatability (hemoglobin (HbAA, HbSS); User1, whole blood): 414.9±0.11 | peak wavelength, repeatability (hemoglobin (HbAA, HbSS); User2, whole blood): 415.1±0.05 | Peak wavelength (hemoglobin (HbAA, HbSS); purified hemoglobin): 417.2 ± 0.78 (n = 23) | area under the peak (hemoglobin (HbAA, HbSS); whole blood, FIG. 10I, pH 6.9, 75 mmHg pO2): 37.2±0.8 | FWHM (hemoglobin (HbAA, HbSS); whole blood, FIG. 10J, pH 6.9, 75 mmHg pO2): 24.3±0.82 | Peak wavelength (hemoglobin (HbAA, HbSS); whole blood): 415.3 ± 0.23 (n = 15) | CD Soret peak, partially deoxygenated (purified hemoglobin): 425 nm

purified Hb: purified hemoglobin (lysed samples)
peak wavelength of purified Hb with increasing Hb concentration (hemoglobin (HbAA, HbSS); purified Hb 0.3-11.2 mg/dl, FIG. 13): 420±0.2

From US20260309621A1, “HIGH THROUGHPUT OPTICAL ASSAY FOR SCREENING HEMOGLOBIN OXYGEN AFFINITY MODIFYING DRUG” (CASE WESTERN RESERVE UNIVERSITY, priority 2023, published 2026)
